Assay [1] concerns the target BRM (Homo sapiens, UniProt P51531). Nature of the assay: ATPase catalytic activity assay (ADP-Glo), BRM. To be noted: 30 nM BRM, 400 μM ATP; for IC50: BRM ATPase: IC50 (uM).
Assay [2] deals with BRG-1 (Homo sapiens, UniProt P51532). Nature of the assay: ATPase catalytic activity assay (ADP-Glo), BRG-1. To be noted: for Emax: 1 h, read-out: BRG1 Max % Inhibition, ADP-Glo, 30 nM BRG-1, 400 μM ATP. On the technique in general: ADP-Glo turns the ADP formed in a reaction into a luminescent signal.
Chain of BRG-1 (P51532 whole entry): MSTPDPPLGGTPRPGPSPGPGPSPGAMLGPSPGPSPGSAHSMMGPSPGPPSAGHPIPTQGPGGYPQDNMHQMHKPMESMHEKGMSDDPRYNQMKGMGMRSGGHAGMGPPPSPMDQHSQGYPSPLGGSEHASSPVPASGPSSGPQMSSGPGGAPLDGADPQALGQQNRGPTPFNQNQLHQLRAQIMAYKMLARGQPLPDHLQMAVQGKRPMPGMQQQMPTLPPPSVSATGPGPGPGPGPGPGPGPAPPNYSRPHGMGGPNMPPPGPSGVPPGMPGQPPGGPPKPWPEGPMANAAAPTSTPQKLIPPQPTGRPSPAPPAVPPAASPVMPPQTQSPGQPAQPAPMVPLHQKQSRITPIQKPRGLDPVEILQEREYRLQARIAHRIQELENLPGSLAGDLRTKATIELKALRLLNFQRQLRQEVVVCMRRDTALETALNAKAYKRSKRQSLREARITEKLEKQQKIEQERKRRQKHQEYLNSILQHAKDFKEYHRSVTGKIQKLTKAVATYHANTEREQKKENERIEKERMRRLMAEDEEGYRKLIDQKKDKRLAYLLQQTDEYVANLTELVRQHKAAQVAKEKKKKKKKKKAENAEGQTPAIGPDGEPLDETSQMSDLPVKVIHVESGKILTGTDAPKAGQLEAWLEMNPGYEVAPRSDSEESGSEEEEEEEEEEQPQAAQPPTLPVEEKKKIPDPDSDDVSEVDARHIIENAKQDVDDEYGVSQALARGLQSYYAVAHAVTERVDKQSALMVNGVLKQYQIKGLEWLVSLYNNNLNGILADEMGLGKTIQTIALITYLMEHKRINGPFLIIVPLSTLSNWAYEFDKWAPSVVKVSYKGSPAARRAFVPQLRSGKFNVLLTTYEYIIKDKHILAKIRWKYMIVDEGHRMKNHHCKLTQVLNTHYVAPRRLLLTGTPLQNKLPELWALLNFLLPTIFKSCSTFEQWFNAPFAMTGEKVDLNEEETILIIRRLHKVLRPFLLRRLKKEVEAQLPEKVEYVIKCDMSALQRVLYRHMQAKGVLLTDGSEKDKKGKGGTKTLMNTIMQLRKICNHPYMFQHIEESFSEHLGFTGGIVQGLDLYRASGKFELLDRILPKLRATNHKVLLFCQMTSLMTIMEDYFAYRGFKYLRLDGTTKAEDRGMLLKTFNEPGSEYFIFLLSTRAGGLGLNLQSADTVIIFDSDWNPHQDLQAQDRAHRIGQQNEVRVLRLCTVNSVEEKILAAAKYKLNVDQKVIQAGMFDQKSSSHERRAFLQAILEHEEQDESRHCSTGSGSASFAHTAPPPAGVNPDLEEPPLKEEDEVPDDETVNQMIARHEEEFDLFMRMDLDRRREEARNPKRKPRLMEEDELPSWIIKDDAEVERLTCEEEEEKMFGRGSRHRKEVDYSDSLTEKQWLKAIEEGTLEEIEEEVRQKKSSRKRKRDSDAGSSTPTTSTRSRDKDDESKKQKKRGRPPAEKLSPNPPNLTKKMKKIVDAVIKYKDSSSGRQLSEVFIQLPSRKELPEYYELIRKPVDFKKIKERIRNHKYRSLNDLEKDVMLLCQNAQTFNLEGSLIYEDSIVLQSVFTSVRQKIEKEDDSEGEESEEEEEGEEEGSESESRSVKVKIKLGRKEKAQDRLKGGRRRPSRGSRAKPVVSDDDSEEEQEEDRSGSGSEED

The values below come from patent publication US12441726B2, “Compounds and uses thereof” (Foghorn Therapeutics Inc., priority 2020, dated 2025).

Some results are limits rather than exact numbers.

Chain of BRM (P51531 whole entry): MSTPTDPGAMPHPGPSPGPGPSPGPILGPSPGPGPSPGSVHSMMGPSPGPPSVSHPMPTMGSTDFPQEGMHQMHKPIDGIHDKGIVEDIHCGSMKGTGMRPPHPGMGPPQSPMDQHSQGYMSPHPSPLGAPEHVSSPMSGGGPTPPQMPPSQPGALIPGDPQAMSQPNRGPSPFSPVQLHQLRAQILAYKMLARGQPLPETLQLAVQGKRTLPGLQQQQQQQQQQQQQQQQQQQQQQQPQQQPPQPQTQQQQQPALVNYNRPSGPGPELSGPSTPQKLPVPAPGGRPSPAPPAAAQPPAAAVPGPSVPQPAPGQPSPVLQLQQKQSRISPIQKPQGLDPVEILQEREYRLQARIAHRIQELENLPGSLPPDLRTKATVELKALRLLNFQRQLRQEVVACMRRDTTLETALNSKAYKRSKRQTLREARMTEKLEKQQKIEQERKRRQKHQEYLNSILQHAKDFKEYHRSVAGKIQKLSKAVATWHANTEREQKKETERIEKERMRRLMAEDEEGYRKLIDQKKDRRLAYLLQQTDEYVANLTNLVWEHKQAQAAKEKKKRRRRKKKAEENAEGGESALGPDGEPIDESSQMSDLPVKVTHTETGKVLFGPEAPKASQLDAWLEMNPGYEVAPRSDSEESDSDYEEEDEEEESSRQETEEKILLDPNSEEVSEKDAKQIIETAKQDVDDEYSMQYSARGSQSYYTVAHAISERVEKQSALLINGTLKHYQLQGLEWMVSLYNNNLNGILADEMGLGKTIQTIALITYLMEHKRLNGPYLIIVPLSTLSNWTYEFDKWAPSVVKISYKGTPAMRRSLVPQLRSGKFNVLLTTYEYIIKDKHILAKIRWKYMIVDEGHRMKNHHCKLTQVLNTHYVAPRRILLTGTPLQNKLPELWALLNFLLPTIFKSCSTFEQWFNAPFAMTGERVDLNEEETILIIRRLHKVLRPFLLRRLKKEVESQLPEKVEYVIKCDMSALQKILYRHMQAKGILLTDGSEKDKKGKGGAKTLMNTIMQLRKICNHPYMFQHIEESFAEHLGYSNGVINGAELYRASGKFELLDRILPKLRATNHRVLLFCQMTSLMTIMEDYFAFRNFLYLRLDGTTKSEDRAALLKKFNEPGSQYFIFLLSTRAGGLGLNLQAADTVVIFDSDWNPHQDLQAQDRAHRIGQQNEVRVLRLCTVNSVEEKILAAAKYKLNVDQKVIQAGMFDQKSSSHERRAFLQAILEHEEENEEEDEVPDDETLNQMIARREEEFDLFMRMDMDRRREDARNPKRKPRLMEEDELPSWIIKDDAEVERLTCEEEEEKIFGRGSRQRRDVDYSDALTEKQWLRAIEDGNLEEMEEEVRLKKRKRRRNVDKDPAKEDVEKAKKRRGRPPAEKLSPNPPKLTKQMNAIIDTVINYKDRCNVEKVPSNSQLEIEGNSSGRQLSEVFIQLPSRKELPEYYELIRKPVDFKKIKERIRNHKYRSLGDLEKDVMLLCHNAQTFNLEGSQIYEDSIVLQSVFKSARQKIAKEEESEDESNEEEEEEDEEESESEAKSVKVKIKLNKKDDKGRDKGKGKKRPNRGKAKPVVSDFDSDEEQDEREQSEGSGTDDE

One may read the IC50 as the concentration at which inhibition is half-maximal. High values mean lower potency, low ones higher potency. As for `C[C@@]1(C#N)COCc2ccc(C(=O)NCc3cc4cc(-c5nccc(N6CCC6)n5)ccc4nn3)cc21` [Compound 335], in assay [1], the “BRM Max % Inhibition” value is 101% and the IC50 was under 0.1 µM. Further, in assay [2], the IC50 lay within 100 to 500 nM and the Emax worked out at 84%.

For `C[C@@]1(F)COCc2ccc(C(=O)NCc3cc4nc(-c5cncc(N6CCOCC6)n5)ccc4cn3)cc21` [Compound 319], in assay [1], the “BRM Max % Inhibition” value is reported as 104% and the IC50 is under 0.1 µM. Further, in assay [2], the half-maximal inhibitory concentration (IC50) was in the range of 100 to 500 nM and the Emax was 92%.

In the case of `C[C@@]1(C#N)COCc2ccc(C(=O)NCc3cc4nc(-c5cccc(N6CCC6)n5)ccc4cn3)cc21` [Compound 496], in assay [1], the “BRM Max % Inhibition” value was determined as 100% and the 50% inhibitory concentration (IC50) was under 0.1 µM. Further, in assay [2], the IC50 is under 100 nM and the Emax stood at 92%.

Regarding `Cn1ccc2c(-c3ccc4cnc(CNC(=O)c5ccc6c(c5)[C@](C)(C#N)COC6)cc4n3)cccc21` [Compound 179], in assay [1], the “BRM Max % Inhibition” value is given as 99% and the IC50 is under 0.1 µM. Besides, in assay [2], the IC50 lay in the range of 100 to 500 nM and the Emax turned out to be 96%.

In the case of `COc1cc(C(C)(C)C)ccc1-c1ccc2cnc(CNC(=O)c3ccc4c(c3)[C@](C)(C#N)COC4)cc2n1` [Compound 148], in assay [1], the “BRM Max % Inhibition” value was 90% and the half-inhibitory concentration (IC50) lay in the range of 0.1 to 0.5 µM. Moreover, in assay [2], the IC50 is over 1000 nM and the Emax turned out to be 32%.

For `C[C@@]1(C#N)COCc2ccc(C(=O)NCc3cc4cc(-c5cncc(C6CC6)n5)cnc4cn3)cc21` [Compound 342], in assay [1], the “BRM Max % Inhibition” value is listed as 97% and the half-maximal inhibitory concentration (IC50) was under 0.1 µM. Also, in assay [2], the IC50 is 500 to 1000 nM and the Emax is 80%.

With `C[C@@]1(C#N)COCc2ccc(C(=O)NCc3cc4cc(-c5ccnc(C6CC6)n5)cnc4cn3)cc21` [Compound 337], in assay [1], the “BRM Max % Inhibition” value is reported as 99% and the IC50 fell in the range of 0.1 to 0.5 µM. Also, in assay [2], the IC50 was 500 to 1000 nM and the Emax came to 63%.

As to `C[C@@]1(C#N)COCc2ccc(C(=O)NCc3cc4nc(-c5ccccc5OCCO)ccc4cn3)cc21` [Compound 431], in assay [1], the “BRM Max % Inhibition” value worked out at 86% and the IC50 lay in the range of 0.1 to 0.5 µM. In addition, in assay [2], the IC50 is 500 to 1000 nM and the Emax stood at 53%.

Take `CNC(=O)c1cccc(-c2ccc3cnc(CNC(=O)c4ccc5c(c4)[C@](C)(C#N)COC5)cc3n2)c1` [Compound 483]: in assay [1], the “BRM Max % Inhibition” value was 93% and the IC50 was in the range of 0.1 to 0.5 µM. Further, in assay [2], the IC50 was 500 to 1000 nM and the Emax turned out to be 72%.

For `CC(=O)N(C)c1cccc(-c2ccc3cnc(CNC(=O)c4ccc5c(c4)[C@](C)(C#N)COC5)cc3n2)n1` [Compound 396], in assay [1], the “BRM Max % Inhibition” value stood at 74% and the IC50 fell in the range of 0.1 to 0.5 µM. Besides, in assay [2], the IC50 is over 1000 nM and the Emax was found to be 32%.

Turning to `C[C@@]1(C#N)COCc2ccc(C(=O)NCc3cc(/C=C(\F)c4ccccc4)ccn3)cc21` [Compound 29], in assay [1], the “BRM Max % Inhibition” value is 98% and the concentration for half-maximal inhibition (IC50) was in the range of 0.1 to 0.5 µM. In addition, in assay [2], the IC50 was over 1000 nM and the Emax turned out to be 69%.

For the molecule `C[C@@]1(F)COCc2ccc(C(=O)NCc3cc4nc(-c5ccnc(N6CCOCC6)n5)ccc4cn3)cc21` [Compound 259], in assay [1], the “BRM Max % Inhibition” value is 99% and the IC50 was under 0.1 µM. In assay [2], the IC50 lay in the range of 100 to 500 nM and the Emax was found to be 88%.

Consider `C[C@@]1(C#N)COCc2ccc(C(=O)NCc3cc4nc(-c5ccnc(C6(F)CC6)n5)ccc4cn3)cc21` [Compound 204], for which, in assay [1], the “BRM Max % Inhibition” value is listed as 97% and the IC50 was under 0.1 µM. Further, in assay [2], the concentration for half-maximal inhibition (IC50) lay in the range of 500 to 1000 nM and the Emax was 82%.

In the case of `C[C@]1(C#N)CCOc2ncc(C(=O)NCc3cc4nc(-c5cncc(C6CC6)n5)ccc4cn3)cc21` [Compound 253], in assay [1], the “BRM Max % Inhibition” value is given as 92% and the IC50 lay in the range of 0.1 to 0.5 µM. Further, in assay [2], the IC50 was 500 to 1000 nM and the Emax worked out at 57%.

Turning to `COCCOCCNC(=O)c1cccc(-c2ccc3cnc(CNC(=O)c4ccc5c(c4)[C@](C)(C#N)COC5)cc3n2)c1` [Compound 316], in assay [1], the “BRM Max % Inhibition” value stood at 98% and the IC50 fell in the range of 0.1 to 0.5 µM. Further, in assay [2], the IC50 was over 1000 nM and the Emax is 92%.

Turning to `COc1c(-c2ccc3cnc(CNC(=O)c4ccc5c(c4)[C@](C)(C#N)COC5)cc3n2)cnn1C` [Compound 462], in assay [1], the “BRM Max % Inhibition” value is listed as 93% and the IC50 was in the range of 0.1 to 0.5 µM. Besides, in assay [2], the IC50 was in the range of 500 to 1000 nM and the Emax was 71%.

As to `CC(C)(O)C#Cc1cccc(-c2ccc3cnc(CNC(=O)c4ccc5c(c4)[C@](C)(C#N)COC5)cc3n2)n1` [Compound 170], in assay [1], the “BRM Max % Inhibition” value was determined as 96% and the concentration for half-maximal inhibition (IC50) was in the range of 0.1 to 0.5 µM. Besides, in assay [2], the IC50 was 500 to 1000 nM and the Emax came out at 80%.

As to `C[C@@]1(C#N)COCc2ccc(C(=O)NCc3cc4nc(-c5cccc(C(=O)N6CCC6)c5)ccc4cn3)cc21` [Compound 484], in assay [1], the “BRM Max % Inhibition” value is 96% and the IC50 was 0.1 to 0.5 µM. Further, in assay [2], the IC50 lay in the range of 500 to 1000 nM and the Emax amounted to 77%.

Turning to `COC(=O)N1CCCC(C#Cc2ccnc(CNC(=O)c3ccc4c(c3)[C@](C)(C#N)COC4)c2)C1` (some centres unmarked) [Compound 5], in assay [1], the “BRM Max % Inhibition” value came out at 64% and the IC50 was over 1 µM. Besides, in assay [2], the IC50 was over 1000 nM and the Emax came to 12%.

Regarding `C[C@@]1(C#N)COCc2ccc(C(=O)NCc3nccc(C#Cc4ccccc4)c3F)cc21` [Compound 16], in assay [1], the “BRM Max % Inhibition” value is reported as 94% and the IC50 lay within 0.1 to 0.5 µM. For the same molecule, in assay [2], the IC50 is over 1000 nM and the Emax worked out at 51%.

In the case of `C[C@@]1(C#N)COCc2ccc(C(=O)NCc3cc4cc(-c5cccc(N6CCC6)n5)ccc4nn3)cc21` [Compound 351], in assay [1], the “BRM Max % Inhibition” value was determined as 101% and the IC50 is under 0.1 µM. Further, in assay [2], the IC50 is 100 to 500 nM and the Emax worked out at 95%.

On to `COc1ccc(-c2ccc3cnc(CNC(=O)c4ccc5c(c4)[C@](C)(C#N)COC5)cc3n2)cc1` [Compound 108], for which, in assay [1], the “BRM Max % Inhibition” value was determined as 99% and the IC50 is under 0.1 µM. In assay [2], the IC50 was in the range of 500 to 1000 nM and the Emax was 91%.

On to `C[C@@]1(F)COCc2ccc(C(=O)NCc3cc4nc(-c5cccc(C6(O)CC6)n5)ccc4cn3)cc21` [Compound 271], for which, in assay [1], the “BRM Max % Inhibition” value is recorded as 104% and the IC50 was under 0.1 µM. Moreover, in assay [2], the half-inhibitory concentration (IC50) lay in the range of 100 to 500 nM and the Emax stood at 95%.

As for `C[C@@]1(C#N)COCc2ccc(C(=O)NCc3cc4nc(-c5ccccc5C(F)F)ccc4cn3)cc21` [Compound 521], in assay [1], the “BRM Max % Inhibition” value came out at 85% and the half-inhibitory concentration (IC50) fell in the range of 0.1 to 0.5 µM. Besides, in assay [2], the IC50 was over 1000 nM and the Emax was 34%.

Regarding `C[C@@]1(C#N)COCc2ccc(C(=O)NCc3cc(CCc4ccccc4)ccn3)cc21` [Compound 25], in assay [1], the “BRM Max % Inhibition” value turned out to be 94% and the IC50 lay within 0.1 to 0.5 µM. In assay [2], the IC50 is over 1000 nM and the Emax worked out at 68%.

Turning to `O=C(NCc1cc(C#Cc2ccccc2)ccn1)c1ccc2c(c1)[C@](F)(C(F)F)COC2` [Compound 48], in assay [1], the “BRM Max % Inhibition” value is listed as 67% and the IC50 was over 1 µM. Further, in assay [2], the IC50 is over 1000 nM and the Emax was found to be 11%.

Consider `CN1C(=O)Cc2cc(-c3ccc4cnc(CNC(=O)c5ccc6c(c5)[C@](C)(C#N)COC6)cc4n3)ccc21` [Compound 498], for which, in assay [1], the “BRM Max % Inhibition” value was 98% and the IC50 lay in the range of 0.1 to 0.5 µM. For the same molecule, in assay [2], the IC50 fell in the range of 100 to 500 nM and the Emax was determined as 83%.

Consider `CN1C(=O)Cc2ccc(-c3ccc4cnc(CNC(=O)c5ccc6c(c5)[C@](C)(C#N)COC6)cc4n3)cc21` [Compound 476], for which, in assay [1], the “BRM Max % Inhibition” value stood at 94% and the IC50 fell in the range of 0.1 to 0.5 µM. In assay [2], the IC50 lay within 500 to 1000 nM and the Emax stood at 63%.

Turning to `COc1nn(C)cc1-c1ccc2cnc(CNC(=O)c3ccc4c(c3)[C@](C)(F)COC4)cc2n1` [Compound 343], in assay [1], the “BRM Max % Inhibition” value came out at 101% and the IC50 is under 0.1 µM. In addition, in assay [2], the IC50 was 500 to 1000 nM and the Emax stood at 78%.

Take `C[C@@]1(C#N)COCc2ccc(C(=O)NCc3cc4cc(-c5ccccc5)cnc4cn3)cc21` [Compound 511]: in assay [1], the “BRM Max % Inhibition” value was determined as 96% and the IC50 is under 0.1 µM. Further, in assay [2], the IC50 is 500 to 1000 nM and the Emax is 79%.

With `C[C@@]1(C#N)COCc2ccc(C(=O)NCc3cc4nc(-c5cccc(N6CCCC6)n5)ccc4cn3)cc21` [Compound 361], in assay [1], the “BRM Max % Inhibition” value came out at 98% and the IC50 was under 0.1 µM. Besides, in assay [2], the half-inhibitory concentration (IC50) is over 1000 nM and the Emax worked out at 98%.

As for `C[C@@]1(F)COCc2ncc(C(=O)NCc3cc4nc(-c5ccnc(N6CCC6)c5F)cnc4cn3)cc21` [Compound 215], in assay [1], the “BRM Max % Inhibition” value amounted to 97% and the IC50 was under 0.1 µM. In assay [2], the IC50 was in the range of 100 to 500 nM and the Emax is 90%.

Consider `COCc1cc2c(-c3ccc4cnc(CNC(=O)c5ccc6c(c5)[C@](C)(C#N)COC6)cc4n3)cccc2n1C` [Compound 141], for which, in assay [1], the “BRM Max % Inhibition” value is reported as 100% and the IC50 is under 0.1 µM. In assay [2], the concentration for half-maximal inhibition (IC50) is 100 to 500 nM and the Emax stood at 96%.

Consider `Cn1cccc(-c2ccc3cnc(CNC(=O)c4ccc5c(c4)[C@](C)(C#N)COC5)cc3n2)c1=O` [Compound 510], for which, in assay [1], the “BRM Max % Inhibition” value amounted to 89% and the IC50 is 0.1 to 0.5 µM. In addition, in assay [2], the IC50 was over 1000 nM and the Emax was determined as 64%.

Consider `C[C@@]1(C#N)COCc2ccc(C(=O)NCc3cc4nc(-c5cccc6c5ccn6C5CC5)ccc4cn3)cc21` [Compound 173], for which, in assay [1], the “BRM Max % Inhibition” value is reported as 98% and the 50% inhibitory concentration (IC50) is under 0.1 µM. In addition, in assay [2], the IC50 was in the range of 100 to 500 nM and the Emax was determined as 94%.
